In patent US10583171B2, “NMDAR antagonists for the treatment of diseases associated with angiogenesis” (INSERM (Institut National de la Sante et de la Recherche …, priority 2015, dated 2020):

How the values were obtained:
Assay type in all cases: cell-based, human
hPMVEC [1] = assay: In vitro angiogenesis Matrigel assay with hPMVEC; conditions: 4 hours, 100 μM (+)-MK-801 maleate or 50 μM DAP-V (FIG. 1g, FIG. 2f)
Experimental: Matrigel assays were performed on μ-slide angiogenesis (IBIDI, Martinsried, Germany). 100 μL of phenol-red free matrigel matrix (BD, Franklin lakes, N.J., USA) were put in each wells and slides were incubated during 30 min at 37° C. Then, 50 μL of EGM2-MV medium with our without NMDAR antagonists (100 μM (+)-MK-801 maleate or 50 μM DAP-V, both from ABCAM BIOCHEMICALS, Cambridge, UK) were added on matrigel gels during 1 hour. 3500 hPMVEC were seeded in each well in presence or absence of NMDAR antagonists. After 4 hours, bright-field images of capillary-like structures were captured using Eclipse 80i microscope coupled to Nis Elements BR2.30 software. Images were then automatically analyzed with “Angiogenesis analyzer” plugin for ImageJ software resulting in total tube length and total number of nodes determination.

hPMVEC [2] = assay: hPMVEC proliferation (BrdU incorporation) stimulated by VEGF-A or FBS; conditions: for hPMVEC proliferation stimulated by FBS 10%: antagonist 10 μM to 100 μM, no exogenous NMDAR agonists (FIG. 2e); for hPMVEC proliferation stimulated by VEGF-A: VEGF-A 10 ng·ml^−1, antagonist 10 μM to 100 μM, no exogenous NMDAR agonists (FIG. 1f)
Experimental: FIG. 1: Activation of endothelial cell NMDAR contributes to vascular remodeling in the development of pulmonary hypertension. • (a) The table summarizes quantitation of total membrane GluN1 i.e NMDAR available for activation, in endothelial cells and also specifically in synaptic-like contact (defined as a close contact […] between two endothelial cells without junctions). A concentration index of GluN1 in the synaptic-like contacts was determined calculating the ratio of the percent of membrane GluN1 in these synaptic-like contacts divided by the percent of synaptic contact length. • (b) Quantitative RT-PCR analysis of GRIN1 gene expression from total RNA of CD31+ cells and CD31− cells isolated from the lungs of wild-type mice (n=4) and knocked-out mice (n=4) for the NMDAR in ECs showing efficiency of Grin1 knockout in ECs. Grin1 gene expression is normalized to Actinb gene expression. Values are normalized to those of WT mice. • (c) Right Ventricular Systolic Pressure (RVSP) measurement in wild-type (n=11-12) and knocked-out mice for the NMDAR in ECs (n=17-18) after 3 weeks of normoxia or chronic hypoxia (FiO2: 10%). • (d) Ratio of right ventricular weight to left ventricular plus septum weight (Fulton index) measured in wild-type (n=12) or knocked-out mice for the NMDAR in ECs (n=19-20) after 3 weeks of normoxia or chronic hypoxia (FiO2: 10%). Same experiment as in c). • (e) Morphometric analysis of pulmonary vessels in wild-type or knocked-out mice for the NMDAR in ECs after 3 weeks of normoxia or chronic hypoxia (FiO2: 10%). Same experiment as in c) and d). […] 100 vessels were analyzed for each group (20 vessels per group and per mice). […] On the left automatic quantification of total tube length and total number of nodes using the “Angiogenesis analyzer” plugin from ImageJ software on a total of 7-8 images (1 image/replicate, each image covering nearly all the well area). Values are expressed as percent of control. […] Statistical significance was determined by Mann Whitney test (b), regular two-way ANOVA followed by Bonferonni's test (c-e), one-way ANOVA followed by Bonferonni's multiple comparison test (f, h) or Student's t test (g). *p<0.05, ***p<0.001 compared to WT/control (b-e, g, h) or ^§§§ p<0.001 compared to control, *p<0.05, ***p<0.001 compared to VEGF (f). […]
FIG. 2: Supplementary figures about activation of endothelial cell NMDAR contributes to vascular remodeling in the development of pulmonary hypertension. • (a) Quantitation of total GluN1-associated immunogold particles per 100 μm^2 of endothelial cells in arteries from a control patient, and in an intimal lesion and plexiform lesion from a PAH patient. • (b) Genotyping of Tek-creXGrin1 mice. […]

hPASMCs = assay: hPASMC proliferation induced by PDGF-BB; conditions: PDGF-BB stimulation, no NMDAR agonist added to the medium
Experimental: For hPASMC culture, 250 000 cells were seeded in T75 flasks (BD Falcon, CORNING, Tewksbury, Mass., USA) and grown in the SmGm2 complete medium containing SmBm basal medium and also basic fibroblast growth factor, epidermal growth factor, insulin and gentamycin/amphotericin 1× (all from LONZA, Basel, Switzerland).
As proliferation of hPASMCs is a crucial determinant of vascular remodeling associated to increased pulmonary vascular resistance and pressure, we analyzed the role of NMDAR activation in hPASMCs proliferation. […] Thus, we explored the potential of PDGF-BB to phosphorylate GluN1 in hPASMCs on Ser896, a site phosphorylated in pulmonary arteries of PAH patients.

hPMVEC [3] = assay: hPASMC/hPMVEC co-culture model of angiogenesis; conditions: hPMVECs and hPASMCs co-culture, 15 days, CD31 staining; 10 to 100 μM (FIG. 1h, FIG. 2g)
Experimental: For the hPASMC/hPMVEC co-culture model of angiogenesis, 20000 PASMC were seeded on glass coverslips in a 12-well plate (CORNING, Tewksbury, Mass., USA) and cultured until confluence in SmGm2 complete medium. […] Medium was changed every 2 to 3 days and after 15 days of co-culture, cells were fixed and CD31 was stained. After staining, 5×5 images of each coverslip were captured using mosaic mode of acquisition with a Zeiss Axio Observer Z1 microscope coupled to Axiovision 4.8 software (both from CARL ZEISS, Oberkochen, Germany). Images were analysed using ImageJ software in order to calculate the CD31 staining area to the total cell area ratio. This ratio was further named as the total tube length. Automatic quantitation was also achieved using AngioQuant software^70 to determine total tube length.

Compound | number of nodes (hPMVEC [1]) | total tube length formation (hPMVEC [1]) | hPMVEC proliferation stimulated by FBS 10% (hPMVEC [2]) | hPMVEC proliferation stimulated by VEGF-A (hPMVEC [2]) | hPASMCs proliferation induced by PDGF-BB (hPASMCs) | formation of the endothelial tube network (hPMVEC [3])
N[C@H](CCCP(=O)(O)O)C(=O)O [DAP-5, 2-amino-5-phosphonopentanoïc acid] | decrease | decrease | – | – | – | –
CC12CC3CC(C)(C1)CC(N)(C3)C2 [memantine, 3,5-dimethyladamantan-1-amine] | – | – | dose-dependently inhibit | dose-dependently inhibit | dose-dependent inhibition | –
C[C@@]12N[C@@H](Cc3ccccc31)c1ccccc12 [MK-801, [5R,10S]-[+]-5-methyl-10,11-dihydro-5H-dibenzo[a,d]cyclohepten-5,10-imine] | decrease | decrease | dose-dependently inhibit | dose-dependently inhibit | – | dose-dependently inhibits
